Columns and labels:
[1] = Glucuronidation kinetics of diosmetin and chrysoeriol by HLMs; format: in vitro ADME, human; details: human, liver microsomes, pH 7.4, Vmax/Km, formation of the named glucuronide
Experimental: (§1) All metabolism studies in vitro were approved by the First Hospital Affiliated to Shihezi University Research Ethics Committee. The glucuronidation assay was performed as described in previous publications. […] The incubation volumes were 120 μL, and the total organic solvent content was 1%. […] The reactions were initiated by adding UDPGA (3.5 mM) at 37°C and then allowed to stand for 30 min in a water bath. These reactions were terminated by adding 60 μL ice-cold acetonitrile containing the IS (25 nM tilianin). […] All experiments were performed in triplicate. The enzyme kinetic parameters were obtained by fitting kinetic models to the experimental data using GraphPad Prism version 5.04 for Windows (GraphPad Software Inc., San Diego, CA, USA). The best model was selected based on visual inspection of the Eadie-Hofstee plots, the calculated r^2 values, and corrected Akaike’s information criterion. The HLMs or human expressed UGT enzymes were employed for kinetic studies at concentrations ranging from 0.0021 mg/mL to 0.0053 mg/mL. The rates of the glucuronidation were fitted to the following equations: V = Cmetabolite/t×Cprotein Where V (nmol/mg/min) is the rates of the glucuronidation, Cmetabolite (μM) and Cprotein (mg/mL) respectively are the concentration of the metabolite and the reaction protein, t (min) is the reaction time. Model selection was based on visual inspection of Eadie—Hofstee plots and it was reported in our previous study. In brief, if the Eadie—Hofstee plot was linear, formation rates (V) of glucuronides at different substrate concentrations (C) were fitted to the standard Eq (1): V = Vmax×C/Km+C (1) where Km is the Michaelis-Menten constant and Vmax is the maximum rate of glucuronidation. The intrinsic clearance (CLint) was derived by Vmax/Km. […] The intrinsic clearance (CLint) was derived by Vmax1/Km1.

[2] = tested on: human liver microsomes (HLMs); assay: as above; format: in vitro ADME; details: for Kinetic profile of glucuronide formation: Eadie—Hofstee plots; for Km / Vmax: formation of the named glucuronide from diosmetin or chrysoeriol
Experimental: as §1

UGT1A1 = target: T1, UGT1A1 (Homo sapiens, UniProt P22309); assay: Glucuronidation kinetics by human expressed UGT1A1; format: in vitro ADME
T1 construct: purchased BD Biosciences (Woburn, MA, USA)
T1 sequence (P22309 26-533): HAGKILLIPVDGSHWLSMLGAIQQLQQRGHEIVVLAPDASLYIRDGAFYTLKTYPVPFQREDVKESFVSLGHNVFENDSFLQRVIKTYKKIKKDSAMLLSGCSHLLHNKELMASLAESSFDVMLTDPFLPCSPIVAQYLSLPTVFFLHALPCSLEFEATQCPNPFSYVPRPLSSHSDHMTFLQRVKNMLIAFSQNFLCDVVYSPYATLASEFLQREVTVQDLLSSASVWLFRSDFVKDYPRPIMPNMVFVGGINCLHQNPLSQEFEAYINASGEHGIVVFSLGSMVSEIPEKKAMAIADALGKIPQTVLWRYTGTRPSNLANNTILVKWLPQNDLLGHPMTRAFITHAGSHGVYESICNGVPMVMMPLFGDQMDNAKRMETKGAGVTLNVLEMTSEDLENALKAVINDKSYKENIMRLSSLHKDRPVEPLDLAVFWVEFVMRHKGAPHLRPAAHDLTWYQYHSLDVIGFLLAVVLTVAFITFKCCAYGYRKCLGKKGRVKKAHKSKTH
Experimental: as §1

HeLa—UGT1A9 cells = assay: Glucuronide excretion at different substrate concentrations in HeLa—UGT1A9 cells; format: cell-based; details: for substrate concentration at which the excretion rate reached a peak: diosmetin or chrysoeriol 1.25-40 μM
Experimental: (§2) The excretion rates, glucuronides intracellular, Glucuronides excretion, the clearance of efflux transporter (CL) and the fraction of the metabolized dose (fmet) experiments were calculated as described in detail previously.

BCRP = target: T2, BCRP (Homo sapiens, UniProt Q9UNQ0); assay: Effect of BCRP inhibitor Ko143 on glucuronide excretion in HeLa—UGT1A9 cells; format: cell-based
T2 construct: endogenous in cells; host or cells: HeLa cells stably transfected with UGT1A9 (from Dr. Ming Hu, University of Houston)
T2 sequence (Q9UNQ0 1-655): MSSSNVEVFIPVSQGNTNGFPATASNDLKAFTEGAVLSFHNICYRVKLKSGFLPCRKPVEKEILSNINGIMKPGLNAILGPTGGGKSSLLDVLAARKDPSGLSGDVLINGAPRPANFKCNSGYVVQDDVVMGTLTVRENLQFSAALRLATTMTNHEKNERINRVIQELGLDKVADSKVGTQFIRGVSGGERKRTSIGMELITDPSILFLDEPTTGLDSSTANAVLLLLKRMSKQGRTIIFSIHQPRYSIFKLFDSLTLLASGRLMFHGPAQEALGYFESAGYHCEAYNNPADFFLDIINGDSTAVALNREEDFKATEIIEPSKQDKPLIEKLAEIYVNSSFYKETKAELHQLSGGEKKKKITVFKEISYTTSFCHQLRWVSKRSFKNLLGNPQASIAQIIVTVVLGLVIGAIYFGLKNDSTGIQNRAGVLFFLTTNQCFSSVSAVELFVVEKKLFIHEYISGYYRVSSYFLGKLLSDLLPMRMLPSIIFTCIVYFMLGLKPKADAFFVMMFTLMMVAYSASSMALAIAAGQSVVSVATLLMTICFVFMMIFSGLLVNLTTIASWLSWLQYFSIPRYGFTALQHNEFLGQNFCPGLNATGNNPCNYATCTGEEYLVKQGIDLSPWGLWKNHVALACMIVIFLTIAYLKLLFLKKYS
Experimental: as §2

UGT1A9 = target: T3, UGT1A9 (Homo sapiens, UniProt O60656); assay: Glucuronidation by human expressed UGT1A9 (screening and kinetics); format: in vitro ADME; details: for Kinetic profile of glucuronide formation: Eadie—Hofstee plots; for microsomal CLint: human, expressed (recombinant) human UGT1A9, pH 7.4, Vmax/Km; for Vmax: substrate diosmetin (Dio-3′-G) or chrysoeriol (Chr-7-G)
T3 construct: purchased BD Biosciences (Woburn, MA, USA)
T3 sequence (O60656 26-530): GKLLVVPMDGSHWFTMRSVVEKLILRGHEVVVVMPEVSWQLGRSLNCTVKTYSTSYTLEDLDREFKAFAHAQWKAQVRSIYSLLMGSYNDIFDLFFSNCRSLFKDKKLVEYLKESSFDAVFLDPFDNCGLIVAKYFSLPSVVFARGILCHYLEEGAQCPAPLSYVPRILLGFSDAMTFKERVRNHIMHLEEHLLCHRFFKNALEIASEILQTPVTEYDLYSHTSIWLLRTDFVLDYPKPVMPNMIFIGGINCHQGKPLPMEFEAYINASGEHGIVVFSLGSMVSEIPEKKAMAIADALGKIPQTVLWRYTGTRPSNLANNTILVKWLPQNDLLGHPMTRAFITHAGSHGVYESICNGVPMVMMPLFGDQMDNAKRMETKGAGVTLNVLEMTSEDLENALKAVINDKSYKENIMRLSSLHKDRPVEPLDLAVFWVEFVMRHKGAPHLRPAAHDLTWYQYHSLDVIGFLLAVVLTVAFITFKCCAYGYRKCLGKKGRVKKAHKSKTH
Experimental: as §1, with “Vmax1/Km1. The method of this study as described in detail previously. […] The incubation conditions were as follows: protein concentration: 0.0053 mg/mL; temperature of water: 37°C; shaker speed: 50 rpm; reaction time: 30 min. After incubation, all samples were pretreated as described above and analyzed by UHPLC—MS/MS.” for “Vmax1/Km1.”

UGT1A6 = target: T4, UGT1A6 (Homo sapiens, UniProt P19224); assay: Glucuronidation by human expressed UGT1A6 (screening and kinetics); format: in vitro ADME
T4 construct: purchased BD Biosciences (Woburn, MA, USA)
T4 sequence (P19224 27-532): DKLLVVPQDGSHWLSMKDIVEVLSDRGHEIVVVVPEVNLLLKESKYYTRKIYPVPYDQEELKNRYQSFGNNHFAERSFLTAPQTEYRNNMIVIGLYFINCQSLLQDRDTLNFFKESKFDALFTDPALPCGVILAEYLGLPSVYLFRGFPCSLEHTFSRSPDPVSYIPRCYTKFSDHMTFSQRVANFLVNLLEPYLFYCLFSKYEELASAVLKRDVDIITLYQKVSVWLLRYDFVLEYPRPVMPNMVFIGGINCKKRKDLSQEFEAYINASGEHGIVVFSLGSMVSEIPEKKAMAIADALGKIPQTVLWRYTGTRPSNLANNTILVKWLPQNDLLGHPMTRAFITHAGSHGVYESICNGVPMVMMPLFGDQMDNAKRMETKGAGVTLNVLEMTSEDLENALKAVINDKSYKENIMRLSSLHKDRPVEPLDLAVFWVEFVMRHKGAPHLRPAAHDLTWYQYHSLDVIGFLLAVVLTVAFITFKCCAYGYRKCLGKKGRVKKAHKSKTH
Experimental: as §1, with “Vmax1/Km1. The method of this study as described in detail previously. […] After incubation, all samples were pretreated as described above and analyzed by UHPLC—MS/MS.” for “Vmax1/Km1.”

[3] = 5 μM Ko143, 2.5 μM diosmetin or chrysoeriol
[4] = 10 μM Ko143, 2.5 μM diosmetin or chrysoeriol

In the case of `COc1cc(-c2cc(=O)c3c(O)cc(O)cc3o2)ccc1O[C@@H]1O[C@H](C(=O)O)[C@@H](O)[C@H](O)[C@H]1O` [Chr-4′-G, chrysoeriol-4′-O-glucuronide], the microsomal CLint [1] is reported as 1270 µL/min/mg, the “Kinetic profile of glucuronide formation” value [2] is reported as “substrate inhibition profiles” and the Km [2] is reported as 0.15 ± 0.03 µM. For the same compound, the Vmax [2] was 0.20 ± 0.01 nmol/mg/min, the “Kinetic profile of glucuronide formation” value (UGT1A1; Eadie—Hofstee plots) was “substrate inhibition kinetic characteristics” and the microsomal CLint (UGT1A1; human, expressed (recombinant) human UGT1A1, pH 7.4, Vmax/Km) was 2260 µL/min/mg. For the same compound, the Vmax (UGT1A1; substrate chrysoeriol) was 0.63 ± 0.06 nmol/mg/min, the “substrate concentration at which fmet reached a peak” value (HeLa—UGT1A9 cells; chrysoeriol 1.25-40 μM) was 2.5 µM and the “substrate concentration at which the excretion rate reached a peak” value (HeLa—UGT1A9 cells) was 2.5 µM. For the same compound, the “increase of total intracellular amount of glucuronide compared with the control” value (“increase” below) (BCRP; [3]) was 1.3 fold and the “increase” value (BCRP; [4]) was 1.8 fold.

In the case of `COc1cc(-c2cc(=O)c3c(O)cc(O[C@@H]4O[C@H](C(=O)O)[C@@H](O)[C@H](O)[C@H]4O)cc3o2)ccc1O` [Chr-7-G, chrysoeriol-7-O-glucuronide], the microsomal CLint [1] is reported as 40 µL/min/mg, the “Kinetic profile of glucuronide formation” value [2] is reported as “classic Michaelis—Menten kinetics” and the Km [2] is reported as 3.83 ± 0.55 µM. The Vmax [2] was 0.15 ± 0.01 nmol/mg/min, the “Kinetic profile of glucuronide formation” value (UGT1A9) was “classic Michaelis-Menten kinetic characteristics” and the microsomal CLint (UGT1A9) was 480 µL/min/mg. For the same compound, the Vmax (UGT1A9) was 0.12 ± 0.01 nmol/mg/min, the “substrate concentration at which the excretion rate reached a peak” value (HeLa—UGT1A9 cells) was 2.5 µM and the “increase” value (BCRP; [3]) was 1.3 fold. For the same compound, the “increase” value (BCRP; [4]) was 1.7 fold.

In the case of `COc1ccc(-c2cc(=O)c3c(O)cc(O)cc3o2)cc1O[C@@H]1O[C@H](C(=O)O)[C@@H](O)[C@H](O)[C@H]1O` [Dio-3′-G, diosmetin-3′-O-glucuronide], the microsomal CLint [1] is reported as 6250 µL/min/mg, the “Kinetic profile of glucuronide formation” value [2] is reported as “classic Michaelis—Menten kinetics” and the Km [2] is reported as 0.19 ± 0.02 µM. For the same compound, the Vmax [2] was 1.16 ± 0.03 nmol/mg/min, the “Kinetic profile of glucuronide formation” value (UGT1A9) was “classic Michaelis-Menten kinetic characteristics” and the microsomal CLint (UGT1A9) was 9520 µL/min/mg. The Vmax (UGT1A9) was 4.27 ± 0.13 nmol/mg/min, the “substrate concentration at which the excretion rate reached a peak” value (HeLa—UGT1A9 cells) was 2.5 µM and the “increase” value (BCRP; [3]) was 1.3 fold. The “increase” value (BCRP; [4]) was 1.8 fold.

In the case of `COc1ccc(-c2cc(=O)c3c(O)cc(O[C@@H]4O[C@H](C(=O)O)[C@@H](O)[C@H](O)[C@H]4O)cc3o2)cc1O` [Dio-7-G, Diosmetin-7-O-glucuronide], the microsomal CLint [1] is reported as 130 µL/min/mg, the “Kinetic profile of glucuronide formation” value [2] is reported as “substrate inhibition profiles” and the Km [2] is reported as 4.66 ± 0.72 µM. For the same compound, the Vmax [2] was 0.61 ± 0.05 nmol/mg/min, the “Kinetic profile of glucuronide formation” value (UGT1A6; Eadie—Hofstee plots) was “substrate inhibition kinetic characteristics” and the microsomal CLint (UGT1A6; human, expressed (recombinant) human UGT1A6, pH 7.4, Vmax/Km) was 300 µL/min/mg. The Vmax (UGT1A6; substrate diosmetin) was 0.92 ± 0.06 nmol/mg/min, the “substrate concentration at which the excretion rate reached a peak” value (HeLa—UGT1A9 cells) was 10 µM and the “increase” value (BCRP; [3]) was 1.1 fold. The “increase” value (BCRP; [4]) was 1.5 fold.

— article PMC5104480 (PLoS ONE, 2016)
